On the set-up of data set [1]: method as in PMID 26392221. The note with it: cited from earlier work.
Data set [2] deals with GBM22 cells. Kind of data set: In vitro dose response, CellTiter-Glo ATP, GBM22. It counts as cell-based. The note with it: Homo sapiens, 72 h. As for the experimental part:
(§1) Figure 1 UM-002 reduces GBM cell proliferation in vitro. (A) Structure of UM-002. […] Reduction in ATP levels was measured using CellTiter-Glo after 72 h of compound treatment and luminescence was normalized to the positive control. Dose response curves were calculated using a variable slope (4 parameters) fit. EC50 and the percentage of positive control at EC50 was calculated for each compound.
(§2) The patient derived xenograft (PDX) glioblastoma cell lines, GBM22 and GBM39, were obtained from the Mayo Clinic Brain Tumor PDX national resource. Cells were cultured as previously described[39],[40]. Since genetic drift is known to occur with passage in vivo and in vitro, a stock of early passage tumor tissue is maintained in storage and xenograft lines are passaged a maximum of 20 times before restoration from early passage tissue. […]
(§3) PDX cells were plated at 3000 cells/well in a 384 well flat bottom plate, and adherent cultures were established overnight. […] Following a 72-h incubation, CellTiter-Glo (Promega, Wisconsin, USA) was used to measure ATP content and luminescence was read on an EnVision plate reader, as previously described. Luminescence was normalized to 10 µM Velcade as a positive control, and 0.1% DMSO as a negative control. Dose response curves were calculated in GraphPad PRISM (version 8.4.3) using a variable slope (four parameter) fit.

Data set [3] deals with GBM22 cells. Nature of the data set: Cerebral brain organoid-GBM co-culture, proliferation and invasion. In kind it is cell-based, human. The note with it: 9 days co-culture; JQ1 500 nM, MK-8628 1000 nM, UM-002 100 nM. The text has this: On day 0 of organoid production, induced pluripotent stem cells (iPSCs), at ~ 80% confluence, were dissociated into small clumps with gentle cell dissociation reagent (StemCell Technologies, 07174) and plated into round-bottom, low-attachment 96 well plates (ThermoFisher, 174925; ~ 15,000 cells per well). Initial media, consisting of mTeSR Plus (Stem Cell Technologies, 05825) supplemented with 5 µm A-83 (Peprotech, 9094360) and 5 µm Dorsomorphin (Peprotech, 8666430), was replaced every other day starting at day 2 by removing half of the media in each well (100 µL) and replacing with fresh media three times. On day 8, media was changed to a base media of Neurobasal A media (Gibco, 10888022) with NeuroCult SM1 (StemCell Technologies, 05711), glutamax (Gibco, 35050061), and Pen/strep (Gibco, 15140122) supplemented with EGF (20 ng/ml; Alomone Labs, E-100) and FGF2 (20 ng/ml; Alomone Labs, F-170). Media was similarly exchanged every other day until day 20 when the mitogenic supplements were exchanged for differentiating factors: BDNF (20 ng/ml; Alomone Labs, B-250) and NT3 (20 ng/ml; Alomone Labs, N-260) in the same base media. After two weeks in differentiation media, organoids could be maintained in the base media for > 100 days[41]. […]

For the next data set, the system named is recurrent GBM. Further details: method as in doi:10.1200/JCO.2016.34.15_suppl.e14123. The note with it: 12 recurrent GBM patients, study terminated; cited from earlier work.
The next data set has as its system GBM39 cells. Nature of the data set: In vitro dose response, CellTiter-Glo ATP, GBM39. In kind it is cell-based. The note with it: Homo sapiens. As for the experimental part:
as §1, §2, §3

The next data set concerns cerebral brain organoids. Kind of data set: Brain organoid viability (organoid volume and surface area) in co-culture. In kind it is cell-based, human. The note with it: 9 days; JQ1 500 nM, MK-8628 1000 nM, UM-002 100 nM.

Where two headings read alike, the source gives them in different places.

Protocol for cerebral brain organoids: GBM22 cells were dissociated into a single cell suspension with Trypsin (Gibco, 15,400,054) and seeded (17,500 cells/well) into round-bottom, low-attachment 96-well plates containing a single mature organoid per well. Cells were seeded by removing 100 µL of media and replacing with 100 µL of cell suspension. GBM cells were allowed to settle around the organoid and attach overnight. After 24 h (day 1 of co-culturing) organoids were either fixed (see below) and stored in PBS as an untreated control or treated with compounds. For treatment, compounds were dissolved in DMSO and diluted in organoid maintenance media. […] On the first day of treatment, organoids were treated by removing half of the media (100 µL) and replacing with 100 µL of a 2 × compound solution. Compounds were renewed with 1 × solutions in the new media every other day following the normal media replacement regimen until the conclusion of the experiment.
Statistical comparisons performed using an unpaired, two-tailed t test or one-way ANOVA with Tukey HSD post-hoc.

`CC(=O)N1c2ccc(-c3ccc(CN4CCCCC4)cc3)cc2[C@H](Nc2ccccc2)C[C@H]1C` [I-BET858]: the Phenotype in mice result in data set [1] is “autism spectrum disorder phenotype”.

As for `Cc1sc2c(c1C)C(c1ccc(Cl)cc1)=N[C@@H](CC(=O)Nc1ccc(O)cc1)c1nnc(C)n1-2` [MK-8628], the EC50 was 1390 nM with GBM22 cells [2] (read-out: GBM22 logEC50 (converted)); 1390 nM with GBM22 cells [2] (CellTiter-Glo, 4 parameter fit, read-out: GBM22 EC50); 813 nM in the data set with GBM39 cells (GBM39, 72 h, read-out: GBM39 logEC50 (converted)); 812 nM in the data set with GBM39 cells (GBM39, 72 h, CellTiter-Glo, 4 parameter fit, read-out: GBM39 EC50). Besides, the “Number of invading GBM cells relative to DMSO control” value with GBM22 cells [3] is “reduced”. Besides, the “Total number of GBM cells relative to DMSO control” value in the data set with GBM22 cells [3] is listed as “reduced”. Further, the Progression-free survival result in the data set with recurrent GBM was “no increase in progression-free survival”. The “Brain organoid viability, as determined by organoid volume and surface area” value with cerebral brain organoids was “did not negatively impact”.
